Results published in patent US9610263B2, “Method of modulating membrane potential of a cell” (VERSITECH LIMITED, priority 2007, dated 2017).
“Also recorded” adds a separate entry of the source.

Assays:
[1] = system: Madin-Darby canine kidney (MDCK) cells; assay: Membrane potential of living cells with bis-oxonol (DiBAC4(3)); type: cell-based
Excerpt: To determine the potential of Example 2 for application in biological and medicinal science, Example 2 was investigated for incorporating into the plasma membranes of living cells and, thereby, modulating their membrane potentials by increasing chloride permeability of the cell membranes. A potential-sensitive dye his-oxonal was used to measure the relative changes in membrane potential of the Madin-Darby canine kidney (MDCK) cells, a model for the renal distal tubule and collecting duct that secrete chloride ions. An increase in fluorescence of bis-oxonal indicated cell depolarization while a decrease indicated hyperpolarization. […] This depolarization effect could be ascribed to that the chloride equilibrium potential (ECl) was higher than the resting membrane potential in MDCK cells. Thus, the opening of chloride channels shifted the membrane potential towards the ECl.
In summary, FIG. 14A-E show the effects of adding different substances, including Example 2, on the membrane potential of Madin-Darby canine kidney (MDCK) cells. Membrane potentials of MDCK cells were monitored by the changes of emission intensity of the potential-sensitive dye bis-oxonol (DiBAC4(3)). The increase in the fluorescence intensity indicates depolarization. […] Each point in FIG. 14A-E represents the mean±s.e. (n=20-80 cells in 4-6 experiments).

[2] = system: mouse thoracic aortic rings; assay: Vasorelaxation of aortic rings preconstricted by high-K solution (organ bath); conditions: aortic rings preconstricted by high-K (60 mM K+) solution, n=5, read-out: half-maximal relaxation value IC50
Excerpt: Example 52 was for investigating whether Example 2 could promote vasorelaxation during vasoconstriction induced by depolarization. Mouse thoracic aortic rings was mounted in an organ bath apparatus and measured their muscular activity.

[3] = Membrane potential of valinomycin-polarized liposomes (safranin O); type: biochemical; conditions: KCl-loaded EYPC-liposomes in KCl/Na2SO4; external addition alone
Excerpt: The ability of Example 2 to modulate membrane potentials in polarized liposomes was investigated. […] This depolarization process induced by Example 2 may be attributed to the formation of chloride channels by Example 2 that mediate chloride ions flow out of the polarized liposomes to balance the electrostatic potential established by valinomycin.

melting point [°C]	Compound	other results
130 to 132	CC(C)CNC(=O)[C@@H](CC(C)C)ONC(=O)c1ccccc1 [Example 6]	–
174 to 176	CC(C)CNC(=O)[C@@H](CO)ONC(=O)c1cccc(C(=O)NO[C@H](CO)C(=O)NCC(C)C)c1 [Example 36]	–
145 to 148	CC(C)CNC(=O)[C@@H](Cc1ccccc1)ONC(=O)c1cccc(C(=O)NO[C@H](Cc2ccccc2)C(=O)NCC(C)C)c1 [Example 37]	–

Further lines, the molecule ahead of its results:

Compound	melting point [°C]	other results
O=C(O)c1ccccc1Nc1ccccc1 [DPC, diphenylamine-2-carboxylate]	–	membrane potential (bis-oxonol fluorescence) ([1]; 1 mM added alone): hyperpolarization of the membrane potential; depolarization induced by low-chloride extracellular solution ([1]; 60 mM Cl- Ringer's solution in presence of 1 mM blocker): entirely inhibited the depolarization effect; also recorded: did not result in depolarization
CC(C)C[C@@H](ONC(=O)c1cccc(C(=O)NO[C@H](CC(C)C)C(=O)OC(C)(C)C)c1)C(=O)OC(C)(C)C [Example 1]	57 to 59	–
CC(C)CNC(=O)[C@@H](CC(C)C)ONC(=O)c1cccc(C(=O)NO[C@H](CC(C)C)C(=O)NCC(C)C)c1 [Example 2]	–	IC50 [2]: 8.42 ± 0.18 µM
CCCCCCCCCCCCCCCCCCNC(=O)[C@@H](CC(C)C)ONC(=O)c1cccc(C(=O)NO[C@H](CC(C)C)C(=O)NCCCCCCCCCCCCCCCCCC)c1 [Example 5]	88 to 90	–
CC(C)CNC(=O)[C@@H](CC(C)C)ONC(=O)c1cccc(C(=O)NO[C@H](CC(C)C)C(=O)NCC(C)C)n1 [Example 7]	175 to 177	–
CC(C)CNC(=O)[C@H](CC(C)C)NC(=O)c1cccc(C(=O)N[C@@H](CC(C)C)C(=O)NCC(C)C)c1 [Example 8]	240 to 242	–
CC(C)CNC(=O)[C@H](CC(C)C)OC(=O)c1cccc(C(=O)O[C@@H](CC(C)C)C(=O)NCC(C)C)c1 [Example 9]	137 to 139	–
CC(C)[C@@H]1NC(=O)[C@H](C)OC(=O)[C@@H](C(C)C)NC(=O)[C@@H](C(C)C)OC(=O)[C@H](C(C)C)NC(=O)[C@H](C)OC(=O)[C@@H](C(C)C)NC(=O)[C@@H](C(C)C)OC(=O)[C@H](C(C)C)NC(=O)[C@H](C)OC(=O)[C@@H](C(C)C)NC(=O)[C@@H](C(C)C)OC1=O [valinomycin]	–	membrane potential of liposomes [3]: polarized the liposome
